{"source": "patent US12544365B2", "about": "“Pharmaceutical combination of an EP4 antagonist and immune checkpoint inhibitors for the treatment of tumours” (ROTTAPHARM BIOTECH S.R.L., priority 2019, dated 2026)", "key": {"[1]": {"system": "PGE2 effect on TNF-α release in rat whole blood culture", "test": "In vitro TNF-α release induced by LPS and modulated by PGE2, rat whole blood culture", "type": "cell-based", "conditions": "0.1 μg/ml LPS + fixed PGE2 concentration giving about 80% inhibition, 4 hours, read-out: IC50, reversal of PGE2 effect on TNF-α release", "method": "Male Wistar Han rats (250-300 g b.w., Charles River, Italy) were housed six per cage in a temperature-controlled room, set to maintain temperature within the range of 20° C. #2° C. and relative humidity within the range of 55%±10 and with a 12-h/12-h light/dark cycle. Throughout the study animals had free access to standard laboratory chow (Teklad rodent diet 2018, Harlan Laboratories, S. Pietro al Natisone, UD, Italy) and drinking water. Care and handling of the animals were in accordance with the guidelines of the Local Government and the regulations of the European Community. Authorization for experimental procedures was granted by the Italian Ministry of Health. The day of the experiments animals were anaesthetized with 2.5-3% isoflurane in O2 inside an induction chamber and blood was drawn from the abdominal aorta. Whole blood samples were collected in tubes containing 0.1-0.2U/ml heparin. […]\nIn samples representing basal release of the cytokine, LPS was substituted by the same volume of sterile PBS. […] The levels of TNF-α release in rat whole blood culture were evaluated using the Rat TNFalpha ELISA kit (Diaclone, France). Compared to the reference standard curve, TNF-α levels in samples were expressed as concentration (pg/ml)."}, "[2]": {"biological_target": "T1, rat EP4R (Rattus norvegicus, UniProt P43114)", "T1 construct": "whole blood culture samples from animals treated orally with vehicle or Compound 1; from tissue; host or cells: whole blood of male Wistar Han rats", "T1 sequence (P43114 whole entry)": "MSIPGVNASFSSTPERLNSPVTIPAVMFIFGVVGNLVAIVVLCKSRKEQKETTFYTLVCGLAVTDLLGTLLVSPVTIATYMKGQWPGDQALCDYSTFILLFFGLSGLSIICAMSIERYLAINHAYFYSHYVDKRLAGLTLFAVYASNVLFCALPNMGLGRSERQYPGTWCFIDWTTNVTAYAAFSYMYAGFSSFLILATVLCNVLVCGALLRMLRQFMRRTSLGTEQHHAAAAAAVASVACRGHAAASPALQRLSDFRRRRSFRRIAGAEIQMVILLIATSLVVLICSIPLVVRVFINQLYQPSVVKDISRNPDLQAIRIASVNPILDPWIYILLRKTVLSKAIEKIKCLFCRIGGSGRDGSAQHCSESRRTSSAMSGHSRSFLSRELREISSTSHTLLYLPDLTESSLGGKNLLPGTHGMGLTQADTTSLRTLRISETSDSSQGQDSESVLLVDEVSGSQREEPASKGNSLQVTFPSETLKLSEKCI", "test": "Ex vivo TNF-α release induced by LPS in whole blood of orally dosed rats: PGE2 IC50 vs dose and time", "method": "Male Wistar Han rats (250-300 g b.w., Charles River, Italy) were housed six per cage in a temperature controlled room, set to maintain temperature within the range of 20° C. ±2° C. and relative humidity within the range of 55%+10 and with a 12-h/12-h light/dark cycle. Throughout the study animals had free access to standard laboratory chow (Teklad rodent diet 2018, Harlan Laboratories, S. Pietro al Natisone, UD, Italy) and drinking water. Care and handling of the animals were in accordance with the guidelines of the Local Government and the regulations of the European Community.\nAuthorization for experimental procedures was granted by the Italian Ministry of Health. […]\nIn details the day of the experiments, animals were anaesthetized with 2.5-3% isoflurane in O2 inside an induction chamber and blood (in average 7 ml/rat) was drawn from the abdominal aorta. […] Compared to the reference standard curve, TNF-α levels in samples were expressed as concentration (pg/ml).\nFor each animal, percent of inhibition by different PGE2 concentrations with respect to control sample, and the corresponding IC50 (or the half-maximal inhibitory concentration in a range 0-100% inhibition) were calculated by linear regression analysis. Moreover, in each treatment group either the mean TNF-α levels and the mean % inhibition by PGE2 were calculated. […]"}, "[3]": {"system": "CT26 cancer cell tumours", "test": "CT26 syngeneic model of mouse colorectal cancer in Balb/c mice", "type": "in vivo", "conditions": "compounds 30 mg/kg oral daily day 7-23; anti PD-1 i.p. 20 mg/kg day 8, 10 mg/kg days 13, 19, 22", "method": "Male Balb/c mice 4-6 weeks old were housed five per cage in a temperature and humidity controlled room with a 12h/12h light/dark cycle. Throughout the experiment the animals had free access to food and water. The Balb/c mice were randomly divided into 6 groups (n=15 in each group): vehicle, Compound 1, Compound 2, anti PD-1, Compound 1+anti PD-1, Compound 2+anti PD-1 group.\nCT26 cells were purchased from ATCC and cultured in Dulbecco's Modified Eagle's Medium (DMEM; ThermoFisher Scientific) supplemented with 10% fetal bovine serum (FBS; Sigma Aldrich) at 37° C. in an incubator with 5% CO2. Cells were sub-cultured twice a week until the number of cells needed for inoculation was obtained.\nOn the day of transplantation (day 0) logarithmic growing phase cells were harvested, diluted in PBS and 10^6 cells in 0.2 ml of PBS were subcutaneously inoculated into the lateral abdominal region of each mouse using a 26G syringe.\nOn day 7 after inoculation the mice were randomized into the 6 treatment groups each of 15 animals receiving respectively vehicle, Compound 1, Compound 2, anti PD-1 and the combination therapies. […]\nTumour sizes (mm^3) were evaluated twice a week by using a digital caliper. The tumour volumes were calculated measuring the tumour lengths along the major and minor axis and using the formula: Volume=[[…]]/2."}}, "data": [{"molecule": "O=C([O-])c1ccc(C2(NC(=O)[C@H]3CC4(CCN3Cc3ccc(C(F)(F)F)cc3)CC4)CC2)cc1.[Na+]", "note": "[Compound 1, sodium (R)-4-(1-(6-(4-(trifluoromethyl)benzyl)-6-azaspiro[2.5]octane-5-carboxamido)cyclopropyl)benzoate]", "values": [{"measurement": "IC50", "setting": "[1]", "result": 2300, "unit": "nM"}, {"measurement": "reversion of PGE2 TNF-α release inhibition, time course", "setting": "[2]; 10 mg/kg oral, blood sampling 1-3-24 hours", "result": "still evident also 24 hours after Compound 1 administration"}, {"measurement": "minimum effective dose", "setting": "[2]; oral, rat, reversion of PGE2 inhibition of TNF-α release", "result": 10, "unit": "mg/kg"}, {"measurement": "effect on tumour growth (tumour volume)", "setting": "[3]", "result": "mild inhibitory effect on cancer growth starting at the second week of treatment"}]}]}
